Experimental findings from US6211154A, “Ketoheterocyclic inhibitors of factor Xa” (COR Therapeutics, Inc., priority 1995, dated 2001) are described below.

The experiment in a line: Coagulation parameters (aPTT, PT) in blood samples of the rabbit venous thrombosis model. Type of experiment: in vivo. Particulars: steady state, mean±SD. From the text:
All measurements are an average of all samples after steady state administration of vehicle or (D)--Arg--G|y--Arg--thiazole. Values are expressed as mean±SD.

`NC(N)=NCCCC(N)C(=O)NCC(=O)NC(CCCN=C(N)N)C(=O)c1nccs1` [H-D-Arg-Gly-Arg-thiazole, H--(D)--Arg--Gly--Arg--Thiazole]: the “PT fold increase over baseline” value (50 μg/kg + 1.28 μg/kg/min) is reported as 1.00 ± 0.00 fold, the “PT fold increase over baseline” value (75 μg/kg + 1.93 μg/kg/min) is 1.00 ± 0.00 fold and the “PT fold increase over baseline” value (100 μg/kg + 2.57 μg/kg/min) is on record as 0.83 ± 0.00 fold.
